From PMC6089189, “Targeting inhibitors of apoptosis proteins suppresses medulloblastoma cell proliferation via G2/M phase arrest and attenuated neddylation of p21” (Cancer Medicine, 2018)
Residues, ends and D or L forms follow the SMILES beside them. *: point of attachment. Cbz = O=C(OCc1ccccc1)*

How the values were obtained:
Format in all cases: cell-based
[1] = test system: p21; test: Immunoblotting of p21 protein in MB cells; settings: DAOY and D283MED
From the text: (§1) Antibody against XIAP, cIAP2, p21, or p53 was purchased from Cell Signaling Technology (Danvers, MA, USA); antibody for detection of cIAP1, cIAP1/2, p27, p16, GAPDH, cyclin A, or cyclin B1 was purchased from Santa Cruz Biotechnology (Dallas, TX, USA); antibodies against CDK1 and CDK2 were bought from Millipore (Burlington, MA, USA) and Upstate Biotechnology, respectively. The blotting membrane was developed using enhanced chemiluminescence (ECL) substrate (Millipore), and analyzed by densitometry and Image J (National Institutes of Health, USA).
(§2) Figure 4 IAPs Inhibition Increases the Protein Levels of p21, which are Governed by Proteasomal Degradation. A, DAOY and D283MED cells were incubated with LBW242 (10 μmol/L) for 0‐360 min. Total cell lysates were collected at different time points and then subjected to immunoblotting. B, The protein levels of cIAP1 and p21 were quantitated, normalized by the levels of GAPDH, and shown in the curve graphs. C, MB cells were transfected with siRNAs against cIAP1 or cIAP2, and nontargeting (NT) siRNA, and protein levels of cIAP1, cIAP2, and p21 were detected by immunoblotting. D, MB cells were treated with MG‐132, CHX, and MNL4924 to verify p21 protein degradation. The levels of p21 were analyzed by immunoblotting

[2] = test system: ubiquitination of p21; test: Immunoprecipitation of p21, ubiquitination (Ub‐HA); settings: MB cells, in the presence of MG‐132 for 6 hours
Experimental: (§3) To observe ubiquitination or neddylation of p21, anti‐p21 antibody (Cell Signaling Technology) and Meg‐Beads‐Protein G (TOOLs) were added into total cell lysates collected from MB cells after transfected with plasmid overexpressing ubiquitin‐hemagglutinin (HA; Addgene, Cambridge, MA, USA) or NEDD8‐HA (Addgene) and treated with MG‐132 for 6 hours. Thereafter, immunoprecipitates were analyzed by immunoblotting with anti‐HA antibody (Sigma).
(§4) Figure 6 IAP Antagonist LBW242 Attenuates p21‐Interacted cIAP1 Expression and Neddylation of p21. A, To examine the ubiquitination of p21, MB cells were transfected with the plasmid carrying ubiquitin (Ub)‐HA and then treated with LBW242 combined with MG‐132 for 6 h. Total cell lysates were used for immunoprecipitation of p21, and subsequently applied to immunoblotting for detection of Ub‐HA, cIAP1, and cIAP2. B, To detect the neddylation of p21, MB cells were transfected with the plasmid overexpressing NEDD8‐HA, treated with MG‐132 and LBW242, and then subjected to immunoprecipitation. C, To examine whether cIAP1 dominates neddylation of p21, MB cells were co‐transfected with cIAP1 siRNA and NEDD8‐HA overexpressed plasmid, treated with MG‐132 for 6 h, and then applied to immunoprecipitation. D, DAOY cells were treated with MG‐132 for 6 h, and stained by immunofluorescence with anti‐cIAP1, anti‐cIAP2, and anti‐p21 antibodies. […]

[3] = test system: cIAP1; test: Immunoblotting of IAPs in MB cells, time course; settings: 10 μmol/L, in 60 minutes, DAOY and D283MED
From the text: as §1, §2

[4] = test system: D283MED cells; test: Apoptosis by Annexin V/PI and FACS, D283MED; settings: Annexin V‐positive population by FACS
[5] = test system: HA‐h cells (human astrocyte‐hippocampal); test: MTT cell viability assay, HA‐h; settings: for effect on HA‐h cell proliferation: 30 μmol/L, 72 h; for IC50: HA‐h, MTT
Experimental: (§5) This assay was carried out using thiazolyl blue tetrazolium bromide (MTT; Sigma), as described in previous studies.12 Cell viability was calculated using the formula: (OD of experimental well/OD of control well) × 100%.
(§6) Figure 1 High Levels of IAPs in MB Cells Correspond to Sensitivity to IAP Inhibitors LBW242 or LCL161. A, The levels of IAPs and p21 in MB cell lines DAOY, D283MED and normal controls HA‐h and BJ were determined by immunoblotting. Their levels in MB cells were quantitated, normalized by GAPDH, presented in a bar graph, and compared to those in HA‐h cells. B, DAOY, D283MED, HA‐h, and BJ cell lines were treated with LBW242 or LCL161 at different concentrations (0, 5, 10, 20, and 40 μmol/L) and DMSO (control) for 72 h. Cell viability was determined by MTT assay. Data are represented as mean ± SEM of three independent experiments (*P < 0.05, **P < 0.01, and ***P < 0.005)

[6] = test system: DAOY cells; test: Apoptosis by Annexin V/PI and FACS, DAOY; settings: Annexin V‐positive population by FACS
[7] = test system: CDK1, CDK2, cyclin A and cyclin B1; test: Immunoblotting of G2/M transition‐related proteins in MB cells; settings: 72 h
From the text: as §1
(§7) A, MB cells were treated with DMSO (control), vincristine (1.25 nmol/L for DAOY and 2.5 nmol/L for D283MED), or cisplatin (0.31 μmol/L for DAOY and 0.625 μmol/L for D283MED), or in combination with LCL161 (10 μmol/L) or LBW242 (10 μmol/L) for 72 h. Thereafter, cells were harvested and their DNA contents were analyzed by FACS. B, The proportion of each cell cycle compartment was shown in bar graphs.

[8] = test system: BJ cells (normal fibroblast cell line); test: MTT cell viability assay, BJ; settings: for effect on BJ cell proliferation: 30 μmol/L, 72 h; for IC50: BJ, MTT
Experimental: as §5, §6

[9] = test system: p21 RNA; test: RT‐PCR analysis of p21 RNA in MB cells; settings: DAOY and D283MED
From the text: Total RNA was extracted using trizole reagent (Easypure Total RNA Reagent) and converted into cDNA product using iScript cDNA Synthesis Kit (BIO‐RAD, Hercules, CA, USA). The cDNA product was mixed with PCR Master Mix reagent (Promega, Madison, WI, USA) and PCR primers, and then subjected to 1% agarose gel electrophoresis. The target gene expression was normalized by GAPDH. Primer sequences for p21 are 5′‐[…]‐3′ (forward) and 5′‐GGGCTTCCTCTTGGA‐GAAGAT‐3′ (reverse); primer sequences for cIAP1 are 5′‐[…]‐3′ (forward) and 5′‐[…]‐3′ (reverse); primer sequences for cIAP2 are 5′‐[…]‐3′ (forward) and 5′‐CAAGTAGATGAGGGTAA‐CTGGC‐3′ (reverse); primer sequences for GAPDH are 5′‐TGAAGGTCGGAGTCA‐ACGGATTTGGT‐3′ (forward) and 5′‐[…]‐3′ (reverse).

[10] = test system: MB cells (DAOY and D283MED); test: MTT cell viability / proliferation, stated for MB cells together; settings: 30 μmol/L, 72 h
Experimental: as §5, §6

[11] = test system: neddylation of p21; test: Immunoprecipitation of p21, neddylation (NEDD8‐HA); settings: MB cells, in the presence of MG‐132 for 6 hours
Experimental: as §3, §4

[12] = test system: D283MED cells; test: MTT cell viability assay, D283MED
Experimental: as §5, §6

[13] = test system: DAOY cells; test: MTT cell viability assay, DAOY
Experimental: as §5, §6

[14] = test system: D283MED cells; test: Cell cycle analysis (PI, FACS), D283MED; settings: siRNA with DMSO control, vincristine or cisplatin, Fig. S2
Experimental: (§8) MB cells were harvested following treatment with reagents. Cells were fixed with 70% ethanol, and then stored at −20°C overnight. Subsequent to equilibrating to room temperature, the cells were permeabilized with PBS containing 0.5% Triton X‐100 and 0.05% RNAse followed by staining with 50 μg/mL propidium iodide (PI; Sigma) at 4°C for 30 minutes. Finally, DNA content was detected by fluorescence‐activated cell sorting (FACS; Beckman Coulter Epics XL, Brea, CA, USA), and data were analyzed by EXPO32 ADC software (Beckman‐Coulter, USA).
as §7

[15] = test system: DAOY cells; test: Cell cycle analysis (PI, FACS), DAOY; settings: siRNA with DMSO control, vincristine or cisplatin, Fig. S2
Experimental: as §8, §7

[16] = cisplatin 72 h, with or without siRNA transfection
[17] = cisplatin alone or with IAP inhibitor (10 μmol/L)
[18] = Homo sapiens, vincristine alone or with IAP inhibitor (10 μmol/L)

SMILES: C[C@@H]1C[C@@H]([C@H](O)CC2CC(=O)NC(=O)C2)C(=O)[C@@H](C)C1 [cycloheximide]
- p21 protein expression [1]: decreased p21 protein levels after 30 minutes

SMILES: NS(=O)(=O)OC[C@@H]1C[C@@H](n2ccc3c(N[C@H]4CCc5ccccc54)ncnc32)C[C@@H]1O [MLN4924]
- p21 protein expression [1]: accumulated in a time‐dependent manner

SMILES: CN[C@@H](C)C(=O)N[C@H](C(=O)N1CC[C@H]2CCN(CCc3ccccc3)C[C@H]21)C1CCCCC1 [LBW242]
- p21 protein expression [1]: enhances p21 expression
- ubiquitination of p21 [2]: no effect
- cIAP1 protein expression [3]: effectively inhibited cIAP1 rather than cIAP2 or XIAP expression
- Apoptosis (%) [4]: 20.1 ± 0.3%
- effect on HA‐h cell proliferation [5]: only mildly slowed
- Apoptosis (%) [6]: 22.6 ± 1.2%
- protein levels of CDK1, CDK2, cyclin A and cyclin B1 [7]: decreased
- effect on BJ cell proliferation [8]: only mildly slowed
- p21 transcriptional (RNA) levels [9]: does not affect p21 RNA levels
- inhibition of proliferation activities [10]: 50%
- neddylation of p21 [11]: reduced neddylation of p21

SMILES: CN[C@@H](C)C(=O)N[C@H](C(=O)N1CCC[C@H]1c1nc(C(=O)c2ccc(F)cc2)cs1)C1CCCCC1 [LCL161]
- Apoptosis (%) [4]: 14.0 ± 0.4%
- effect on HA‐h cell proliferation [5]: only mildly slowed
- Apoptosis (%) [6]: 17.2 ± 2.5%
- protein levels of CDK1, CDK2, cyclin A and cyclin B1 [7]: decreased
- effect on BJ cell proliferation [8]: only mildly slowed
- inhibition at 30 µM ([10]; read-out: inhibition of proliferation activities): 50%

SMILES: N.N.[Cl][Pt][Cl] [Cisplatin, cisplatin]
- IC50 [12, 16]: > 2500 nM
- IC50 [12, 17]: 1200 ± 250 nM
- IC50 [13, 16]: 740 ± 60 nM
- IC50 [13, 17]: 1800 ± 100 nM
- Apoptosis (%) [4]: 55.3 ± 3.5%
- IC50 [5, 17]: > 5000 nM
- Apoptosis (%) [6]: 13.3 ± 2.4%
- G2/M (proportion of cells) [14]: 19.10%
- IC50 [8, 17]: > 5000 nM
- G2/M (proportion of cells) [15]: 16.70%

SMILES: CC(C)C[C@@H](C=O)NC(=O)[C@H](CC(C)C)NC(=O)[C@H](CC(C)C)NC(=O)OCc1ccccc1 [MG‐132] (Cbz-Leu-Leu-Leu-aldehyde)
- p21 protein expression [1]: accumulated in a time‐dependent manner

SMILES: CC[C@]1(O)C[C@H]2CN(CCc3c([nH]c4ccccc34)[C@@](C(=O)OC)(c3cc4c(cc3OC)N(C=O)[C@H]3[C@@](O)(C(=O)OC)[C@H](OC(C)=O)[C@]5(CC)C=CCN6CC[C@]43[C@@H]65)C2)C1 [Vincristine]
- IC50 ([12]; Homo sapiens, D283 Med, vincristine 72 h, with or without siRNA transfection): > 5 nM
- IC50 ([12]; Homo sapiens, D283 Med, vincristine alone or with IAP inhibitor (10 μmol/L)): 5.7 ± 0.47 nM
- IC50 ([13]; Homo sapiens, vincristine 72 h, with or without siRNA transfection): 3.47 ± 0.28 nM
- IC50 [13, 18]: 5.5 ± 0.61 nM
- Apoptosis (%) [4]: 34.4 ± 2.4%
- IC50 [5, 18]: > 20 nM
- Apoptosis (%) [6]: 6.0 ± 2.1%
- G2/M (proportion of cells) [14]: 21.20%
- IC50 ([8]; Homo sapiens, chemotherapeutic agent alone or with IAP inhibitor (10 μmol/L)): > 5 nM
- G2/M (proportion of cells) [15]: 18.28%
